{
  "source": "patent US10406217B2",
  "about": "“Antifugetactic agents for the treatment of cancers” (The General Hospital Corporation, priority 2004, dated 2019)",
  "target": "T1, CXCR2 (Homo sapiens, UniProt P25025)",
  "T1 construct": "endogenous in cells; host or cells: neutrophils (isolated primary cells)",
  "T1 sequence (P25025 1-360)": "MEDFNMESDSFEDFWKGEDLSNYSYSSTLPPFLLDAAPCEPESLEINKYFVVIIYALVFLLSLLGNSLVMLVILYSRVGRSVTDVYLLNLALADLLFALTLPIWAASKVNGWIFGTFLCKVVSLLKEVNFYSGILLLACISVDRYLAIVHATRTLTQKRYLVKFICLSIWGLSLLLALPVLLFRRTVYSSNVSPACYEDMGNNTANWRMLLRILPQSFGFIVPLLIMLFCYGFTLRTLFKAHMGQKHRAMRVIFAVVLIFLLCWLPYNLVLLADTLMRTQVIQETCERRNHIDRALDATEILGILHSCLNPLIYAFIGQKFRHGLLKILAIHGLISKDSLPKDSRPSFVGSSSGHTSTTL",
  "assay": "Sequential calcium flux in neutrophils to IL-8 after SB225002 pretreatment",
  "assay_type": "cell-based",
  "conditions": "1 pM SB225002; IL-8 1.2 μM and 1.2 μM or 600 nM and 1.2 μM; p<0.05",
  "description": "Calcium flux in neutrophils in response to IL-8 was measured as previously described (Mahon M. J., et al. 2004 J Biol Chem 279:23550-8). Briefly, isolated cells (˜10^7/ml) were transferred into a balanced salt solution (127 mM NaCl, 3.8 mM KCl, 1.2 mM KH2PO4, 1.2 mM CaCl2, 0.9 mM MgCl2, 5 mM glucose, and 10 mM HEPES, pH 7.4), incubated for 45 min at room temperature with 1.25 μM Fura-2 acetoxymethyl ester (Molecular Probes, Eugene, Oreg.), washed with the balanced salt solution, and unloaded for 15 min at room temperature. […] Calcium flux in response to indicated concentrations of IL-8 (Akahoshi T., et al. 1994 Lymphokine Cytokine Res 13:113-6) was measured by fluorescence of cells excited at 340 and 380 nm using a PTI Deltascan dual-wavelength fluorimeter (Photon Technologies Incorporated, Lawrenceville, N.J.), observed through a Nikon Diaphot 200 microscope (Melville, N.Y.) and Sensys charge-coupled device camera (Photometrics, Ltd., Tucson, Ariz.), and analyzed using the Poenie-Tsien ratio with Imagemaster 2 software (Photon Technologies Incorporated). Signaling responses to IL-8 at designated concentrations were calibrated against maximal calcium flux as determined by treatment with 5 μM ionomycin (Sigma). CXCR2 expression on neutrophils pre- and post-exposure to 120 nM, 1.2 μM and 2.4 μM IL-8 was determined using PE-labelled anti-CXCR2 IgGl antibody (R & D systems). […]",
  "data": [
    {"smiles": "O=C(Nc1ccc([N+](=O)[O-])cc1O)Nc1ccccc1Br", "note": "[SB225002]", "values": [
      {"measurement": "sequential peaks of calcium flux following IL-8 stimulation", "value": "significantly reduced"}
    ]}
  ]
}
